Measurements taken from patent publication US20240033234A1, “THERAPEUTIC COMPOUNDS, FORMULATIONS, AND USE THEREOF” (Tvardi Therapeutics, Inc., priority 2022, published 2024).
“And” between values parts separate entries of the source, which are not always exact repeats. Equal values may be shown once.

Test: Accelerated and long term stability study of TTI-101 (Batch A, Batch B): HPLC assay, purity, impurities and water content after storage at 5° C., 25° C./60% RH, 30° C./65% RH or 40° C./75% RH
Format: physicochemical
Settings: for Impurities RRT 1.06: RRT of Compound 4; for Impurities RRT 0.99: RRT of compound of formula (IV)
Procedure: Exemplary HPLC conditions: diluent was 0.1% trifluoroacetic acid (TFA) in acetonitrile, Mobile Phase A was 0.05% TFA in water, and Mobile Phase B was 0.05% TFA in acetonitrile, column (Agilent, Eclipse XDB-C18, 3.0×100 mm, particle size 1.8 μm), flow (0.425 mL/min), and detector (280 nm diode array).
Batch A was prepared analogously using Method 3 as described in Example 1. Batch B was prepared according to Method 5 as described in Example 1.
Samples of TTI-101 were stored at 5° C., 25° C./60% RH, 30° C./65% RH, or 40° C./75% RH. TTI-101 was stored in an LDPE bag enclosed with a Nylon cable tie and then transferred to another LDPE bag and enclosed with a Nylon cable tie. The enclosure was put into an HDPE bottle and closed with a polyethylene-lined polypropylene cap. The samples were stored under the above-identified conditions.
The samples were analyzed using HPLC with the exemplary conditions identified above. Relative retention time (RRT) for Compound 5 was about 0.83, Compound 4 was about 1.05-1.06, Compound 6 was about 1.15-1.17, and compound of formula (IV) was about 0.99.
• NA not applicable • NQ ≥0.02% and <0.05% • Avg average • Cmpd compound • — no peak • M month • RRT relative retention time

[1] = 25° C./60% RH, 6 M, P1/P2, listed as Batch A
[2] = 25° C./60% RH, 9 M, P1/P2, listed as Batch A
[3] = 25° C./60% RH, 12 M, P1/P2, listed as Batch A
[4] = 40° C./75% RH, 0 M, P1/P2, listed as Batch A
[5] = 40° C./75% RH, 2 M, P1/P2, listed as Batch A
[6] = 40° C./75% RH, 6 M, P1/P2, listed as Batch A

Purity (%) (25° C./60% RH, 3 M, P1/P2): 99.7% | Water Content (%) (25° C./60% RH, 3 M, P1/P2): <0.04% | Assay (%) (25° C./60% RH, 3 M, P1/P2, listed as Batch A): 99.0% and 100.0% | Assay (%) (25° C./60% RH, 6 M, Avg): 98.2% | Impurities RRT 1.15 (Cmpd 6) (25° C./60% RH, 6 M, Avg): 0.11 area % | Impurities Total (25° C./60% RH, 6 M, Avg): 0.1 area % | Purity (%) (25° C./60% RH, 6 M, Avg): 99.9% | Water Content (%) (25° C./60% RH, 6 M, Avg): <0.04% | Impurities Total (25° C./60% RH, 6 M, P1/P2): 0.1 area % | Purity (%) (25° C./60% RH, 6 M, P1/P2): 99.9% | Water Content (%) (25° C./60% RH, 6 M, P1/P2): <0.04% | Assay (%) [1]: 97.0% and 99.5% | Impurities RRT 1.15 (Cmpd 6) [1]: 0.11 area % and 0.12 area % | Assay (%) (25° C./60% RH, 9 M, Avg): 98.4% | Impurities RRT 1.16 (Cmpd 6) (25° C./60% RH, 9 M, Avg): 0.10 area % | Impurities Total (25° C./60% RH, 9 M, Avg): 0.1 area % | Purity (%) (25° C./60% RH, 9 M, Avg): 99.9% | Water Content (%) (25° C./60% RH, 9 M, Avg): <0.04% | Impurities Total (25° C./60% RH, 9 M, P1/P2): 0.1 area % | Purity (%) (25° C./60% RH, 9 M, P1/P2): 99.9% | Water Content (%) (25° C./60% RH, 9 M, P1/P2): <0.04% | Assay (%) [2]: 99.7% and 97.0% | Impurities RRT 1.16 (Cmpd 6) [2]: 0.11 area % and 0.10 area % | Assay (%) (25° C./60% RH, 12 M, Avg): 98.5% | Impurities RRT 1.06 (Cmpd 4) (25° C./60% RH, 12 M, Avg): NQ (≥0.02% and <0.05%) | Impurities RRT 1.16 (Cmpd 6) (25° C./60% RH, 12 M, Avg): 0.39 area % | Impurities RRT 1.52 (25° C./60% RH, 12 M, Avg): NQ (≥0.02% and <0.05%) | Impurities Total (25° C./60% RH, 12 M, Avg): 0.4 area % | Purity (%) (25° C./60% RH, 12 M, Avg): 99.6% | Water Content (%) (25° C./60% RH, 12 M, Avg): 0.04% | Impurities RRT 1.06 (Cmpd 4) (25° C./60% RH, 12 M, P1/P2): NQ (≥0.02% and <0.05%) | Impurities RRT 1.16 (Cmpd 6) (25° C./60% RH, 12 M, P1/P2): 0.39 area % | Impurities Total (25° C./60% RH, 12 M, P1/P2): 0.4 area % | Purity (%) (25° C./60% RH, 12 M, P1/P2): 99.6% | Assay (%) [3]: 98.3% and 98.6% | Water Content (%) [3]: <0.04% and 0.04% | Assay (%) (25° C./60% RH, 18 M, Avg): 98.2% | Impurities RRT 1.15 (Cmpd 6) (25° C./60% RH, 18 M, Avg): 0.10 area % | Impurities Total (25° C./60% RH, 18 M, Avg): 0.1 area % | Purity (%) (25° C./60% RH, 18 M, Avg): 99.9% | Water Content (%) (25° C./60% RH, 18 M, Avg): <0.04% | Impurities RRT 1.15 (Cmpd 6) (25° C./60% RH, 18 M, P1/P2): 0.10 area % | Impurities Total (25° C./60% RH, 18 M, P1/P2): 0.1 area % | Purity (%) (25° C./60% RH, 18 M, P1/P2): 99.9% | Water Content (%) (25° C./60% RH, 18 M, P1/P2): <0.04% | Impurities RRT 1.06 (25° C./60% RH, 18 M, P1/P2): NQ (≥0.02% and <0.05%) | Assay (%) (25° C./60% RH, 18 M, P1/P2, listed as Batch A): 98.3% and 98.2% | Assay (%) (25° C./60% RH, 24 M, Avg): 99.3% | Impurities RRT 1.16 (Cmpd 6) (25° C./60% RH, 24 M, Avg): 0.12 area % | Impurities Total (25° C./60% RH, 24 M, Avg): 0.1 area % | Purity (%) (25° C./60% RH, 24 M, Avg): 99.9% | Water Content (%) (25° C./60% RH, 24 M, Avg): <0.04% | Impurities RRT 1.16 (Cmpd 6) (25° C./60% RH, 24 M, P1/P2): 0.12 area % | Impurities Total (25° C./60% RH, 24 M, P1/P2): 0.1 area % | Purity (%) (25° C./60% RH, 24 M, P1/P2): 99.9% | Water Content (%) (25° C./60% RH, 24 M, P1/P2): <0.04% | Impurities RRT 1.06 (25° C./60% RH, 24 M, P1/P2): NQ (≥0.02% and <0.05%) | Assay (%) (25° C./60% RH, 24 M, P1/P2, listed as Batch A): 99.1% and 99.6% | Assay (%) (40° C./75% RH, 0 M, Avg): 99.8% | Impurities RRT 1.06 (Cmpd 4) (40° C./75% RH, 0 M, Avg): NQ (≥0.02% and <0.05%) | Impurities RRT 1.17 (Cmpd 6) (40° C./75% RH, 0 M, Avg): 0.13 area % | Impurities RRT 1.32 (40° C./75% RH, 0 M, Avg): NQ (≥0.02% and <0.05%) | Impurities Total (40° C./75% RH, 0 M, Avg): 0.1 area % | Purity (%) (40° C./75% RH, 0 M, Avg): 99.8% | Water Content (%) (40° C./75% RH, 0 M, Avg): <0.04% | Impurities RRT 0.99 (40° C./75% RH, 0 M, Avg): NQ (≥0.02% and <0.05%) | Impurities RRT 1.32 (40° C./75% RH, 0 M, P1/P2): NQ (≥0.02% and <0.05%) | Impurities Total (40° C./75% RH, 0 M, P1/P2): 0.1 area % | Purity (%) (40° C./75% RH, 0 M, P1/P2): 99.8% | Water Content (%) (40° C./75% RH, 0 M, P1/P2): <0.04% | Assay (%) [4]: 99.9% and 99.7% | Impurities RRT 1.17 (Cmpd 6) [4]: 0.13 area % and 0.12 area % | Assay (%) (40° C./75% RH, 2 M, Avg): 99.9% | Impurities RRT 1.16 (Cmpd 6) (40° C./75% RH, 2 M, Avg): 0.07 area % | Impurities RRT 1.29 (40° C./75% RH, 2 M, Avg): NQ (≥0.02% and <0.05%) | Impurities RRT 1.38 (40° C./75% RH, 2 M, Avg): NQ (≥0.02% and <0.05%) | Impurities Total (40° C./75% RH, 2 M, Avg): 0.1 area % | Purity (%) (40° C./75% RH, 2 M, Avg): 99.9% | Water Content (%) (40° C./75% RH, 2 M, Avg): <0.04% | Impurities RRT 0.99 (40° C./75% RH, 2 M, Avg): NQ (≥0.02% and <0.05%) | Impurities RRT 1.38 (40° C./75% RH, 2 M, P1/P2): NQ (≥0.02% and <0.05%) | Impurities Total (40° C./75% RH, 2 M, P1/P2): 0.1 area % | Purity (%) (40° C./75% RH, 2 M, P1/P2): 99.9% | Water Content (%) (40° C./75% RH, 2 M, P1/P2): <0.04% | Impurities RRT 0.99 (40° C./75% RH, 2 M, P1/P2): NQ (≥0.02% and <0.05%) | Assay (%) [5]: 100.0% and 99.8% | Impurities RRT 1.16 (Cmpd 6) [5]: 0.08 area % and 0.06 area % | Assay (%) (40° C./75% RH, 3 M, Avg): 99.0% | Impurities RRT 0.36 (40° C./75% RH, 3 M, Avg): NQ (≥0.02% and <0.05%) | Impurities RRT 1.06 (Cmpd 4) (40° C./75% RH, 3 M, Avg): 0.07 area % | Impurities RRT 1.16 (Cmpd 6) (40° C./75% RH, 3 M, Avg): 0.21 area % | Impurities Total (40° C./75% RH, 3 M, Avg): 0.3 area % | Purity (%) (40° C./75% RH, 3 M, Avg): 99.7% | Water Content (%) (40° C./75% RH, 3 M, Avg): <0.04% | Impurities RRT 1.06 (Cmpd 4) (40° C./75% RH, 3 M, P1/P2): 0.07 area % | Impurities RRT 1.16 (Cmpd 6) (40° C./75% RH, 3 M, P1/P2): 0.21 area % | Impurities Total (40° C./75% RH, 3 M, P1/P2): 0.3 area % | Purity (%) (40° C./75% RH, 3 M, P1/P2): 99.7% | Water Content (%) (40° C./75% RH, 3 M, P1/P2): <0.04% | Assay (%) (40° C./75% RH, 3 M, P1/P2, listed as Batch A): 100.8% and 97.2% | Impurities RRT 1.15 (Cmpd 6) (40° C./75% RH, 6 M, Avg): 0.13 area % | Impurities Total (40° C./75% RH, 6 M, Avg): 0.1 area % | Purity (%) (40° C./75% RH, 6 M, Avg): 99.9% | Water Content (%) (40° C./75% RH, 6 M, Avg): <0.04% | Impurities Total (40° C./75% RH, 6 M, P1/P2): 0.1 area % | Purity (%) (40° C./75% RH, 6 M, P1/P2): 99.9% | Water Content (%) (40° C./75% RH, 6 M, P1/P2): <0.04% | Assay (%) [6]: 98.5% and 95.9% | Impurities RRT 1.15 (Cmpd 6) [6]: 0.13 area % and 0.12 area % | Assay (%) (40° C./75% RH, 8 M, Avg): 100.3% | Impurities RRT 1.16 (Cmpd 6) (40° C./75% RH, 8 M, Avg): 0.08 area % | Impurities Total (40° C./75% RH, 8 M, Avg): 0.1 area % | Purity (%) (40° C./75% RH, 8 M, Avg): 99.9% | Water Content (%) (40° C./75% RH, 8 M, Avg): 0.04% | Impurities Total (40° C./75% RH, 8 M, P1-P6): 0.1 area % | Purity (%) (40° C./75% RH, 8 M, P1-P6): 99.9% | Impurities Total (Storage 5° C., 0 M, Avg): 0.1 area % | Impurity RRT 0.61 (Storage 5° C., 0 M, Avg): 0.05 area % | Impurity RRT 0.86 (Storage 5° C., 0 M, Avg): NQ (≥0.02% and <0.05%) | Impurity RRT 0.88 (Storage 5° C., 0 M, Avg): NQ (≥0.02% and <0.05%) | Impurity RRT 0.99 (Storage 5° C., 0 M, Avg): NQ (≥0.02% and <0.05%) | Impurity RRT 1.16 (Cmp 6) (Storage 5° C., 0 M, Avg): 0.07 area % | Purity (Storage 5° C., 0 M, Avg): 99.8%
SMILES: COc1ccc(S(=O)(=O)Nc2cc(-c3c(O)ccc4ccccc34)c(O)c3ccccc23)cc1 [TTI-101]
Assay (%) (40° C./75% RH, 8 M, P1-P6, listed as Batch A): 100.0% and 99.8% and 100.3% and 100.6% and 99.9% and 100.8%
